{
  "source": "patent US9579384B2",
  "about": "“Method of treating bendamustine-responsive conditions in patients requiring reduced volumes for administration” (Eagle Pharmaceuticals, Inc., priority 2012, dated 2017)",
  "key": {"[1]": {"test": "Measured solubility of bendamustine HCl in the diluent/solubilizer combination at room temperature", "format": "physicochemical", "conditions": "aqueous with cosolvent or surfactant or cyclodextrin", "procedure": "The solubility of the diluent/solubilizer combination far exceeded the bendamustine concentration, thus assuring the avoidance of precipitated drug prior to or during administration. As will be appreciated by those of ordinary skill, as the concentration of solubilizers increases with respect to the total volume in small administration doses, the solubility of the bendamustine is maintained.\nBendamustine formulations containing the above ingredients are capable of delivering approximately 360 mg of the drug as the HCl salt in volumes of pharmaceutically acceptable diluent ranging from about 120 ml down to about 15 ml."}, "[2]": {"test": "Observation of precipitation in the IV fluid during administration to patient", "format": "physicochemical", "procedure": "In this example, a patient diagnosed with chronic lymphocytic leukemia (CLL) and having chronic kidney disease (GFR<30 ml/min/1.73 m^2) is begun on a treatment protocol with bendamustine. In particular, the patient is administered 360 mg of bendamustine as part of an approximately 114.4 ml infusion on days 1 and 2 of a 28 day cycle. The intravenous formulation is prepared by drawing up 14.4 ml of an RTU (ready to use) liquid containing bendamustine HCl 25 mg/ml, PG 103.2 mg/ml, PEG 1013.4 mg/ml, monothioglycerol 5 mg/ml and 0.08 mg/ml NaOH and mixing it into a 100 ml bag containing 0.9% NaCl. The final bendamustine concentration for the IV fluid is 3.15 mg/ml. The infusion is administered to the patient in less than 15 minutes.\nThe process of Example 1 is repeated except that the IV infusion volume is approximately 64.4 ml. The same 14.4 ml of an RTU (ready to use) liquid containing bendamustine HCl 25 mg/ml, PG 103.2 mg/ml, PEG 1013.4 mg/ml, monothioglycerol 5 mg/ml and 0.08 mg/ml NaOH is used and it is mixed into a 50 ml bag containing 0.9% NaCl. The final bendamustine concentration for the IV fluid is 5.59 mg/ml. The infusion is administered to the patient in less than 10 minutes."}},
  "note": "Structures can show the parent of a compound that is named as a salt.",
  "data": [
    {"smiles": "Cn1c(CCCC(=O)O)nc2cc(N(CCCl)CCCl)ccc21", "note": "[bendamustine HCl, Bendamustine HCl]", "values": [
      {"measurement": "solubility", "setting": "[1]; half normal saline/dextrose diluent/solubilizer combination, 50 ml half normal saline/dextrose + 1 ml of 25 mg/ml bendamustine HCl and solubilizers (PG, PEG 400)", "value": 14.2, "unit": "mg/mL"},
      {"measurement": "solubility", "setting": "[1]; normal saline diluent/solubilizer combination, 50 ml normal saline + 1 ml of 25 mg/ml bendamustine HCl and solubilizers (PG, PEG 400)", "value": 10.5, "unit": "mg/mL"},
      {"measurement": "precipitation of bendamustine in the IV fluid during administration", "setting": "[2]; 14.4 ml RTU liquid (25 mg/ml) in 50 ml 0.9% NaCl, final 5.59 mg/ml, infusion in less than 10 minutes", "value": "No precipitated bendamustine is observed"},
      {"measurement": "precipitation of bendamustine in the IV fluid during administration", "setting": "[2]; 14.4 ml RTU liquid (25 mg/ml) in 100 ml 0.9% NaCl, final 3.15 mg/ml, infusion in less than 15 minutes", "value": "No precipitated bendamustine is observed"}
    ]}
  ]
}
